Reference: patent US8518957B2, “Methanocarba adenosine derivatives, pharmaceutical compositions, and method of reducing intraocular pressure” (The United States of America, as represented by the …, priority 2009, dated 2013)
Read-outs that look alike come from different tables or passages of the source.

Columns and labels:
[1] = biological target: T1, human A3AR (Homo sapiens, UniProt P0DMS8); settings: concentration 10 μM; values from Tosh et al.; cited from earlier work
T1 construct: expressed in transfected cells
T1 sequence (P0DMS8 1-318): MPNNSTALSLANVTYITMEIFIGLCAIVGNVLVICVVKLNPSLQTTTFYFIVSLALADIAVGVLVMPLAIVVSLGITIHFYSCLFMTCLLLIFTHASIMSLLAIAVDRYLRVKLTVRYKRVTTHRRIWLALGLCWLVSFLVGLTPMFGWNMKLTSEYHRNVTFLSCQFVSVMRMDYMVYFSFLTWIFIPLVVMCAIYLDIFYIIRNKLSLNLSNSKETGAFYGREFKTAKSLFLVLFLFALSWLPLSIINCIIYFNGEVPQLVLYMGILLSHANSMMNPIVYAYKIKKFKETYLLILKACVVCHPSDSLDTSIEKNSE

[2] = biological target: T2, human A1 AR (Homo sapiens, UniProt P30542); assay: Radioligand binding at human A1 AR ([3H]NECA, membranes of CHO cells); settings: for % inhibition, A1: inhibition of radioligand binding at 10 μM, [3H]36, CHO cells
T2 construct: expressed in transfected cells
T2 sequence (P30542 1-326): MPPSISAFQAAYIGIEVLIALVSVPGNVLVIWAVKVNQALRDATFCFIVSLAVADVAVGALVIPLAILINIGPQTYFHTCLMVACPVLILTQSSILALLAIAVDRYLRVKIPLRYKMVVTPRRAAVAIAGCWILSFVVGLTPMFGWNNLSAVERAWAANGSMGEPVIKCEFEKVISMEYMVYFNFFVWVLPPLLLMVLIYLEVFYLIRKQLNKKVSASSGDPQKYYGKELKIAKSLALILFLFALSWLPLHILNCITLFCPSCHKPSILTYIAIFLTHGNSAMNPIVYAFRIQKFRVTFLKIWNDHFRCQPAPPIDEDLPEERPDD
Procedure, shortened: (§1)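 Membranes from CHO (hA1, hA3) or HEK-293 (hA2A) cells were pretreated with adenosine deaminase and incubated 60 min at 25° C in pH 7.5 Tris/10 mM MgCl2. Radioligands were A1 [3H]NECA 3.5 nM, A2A [3H]CGS21680 10 nM and A3 [125I]I-AB-MECA 0.34 nM. Bound ligand was filtered and Ki derived.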

[3] = biological target: T3, hA2AAR (Homo sapiens, UniProt P29274); assay: Radioligand binding at human A2A AR ([3H]CGS21680, membranes of HEK-293 cells); settings: for Ki / % inhibition, A2A: [3H]37, HEK293 cells; for Ki: read-out: Affinity (Ki, nM), A2A; for % inhibition, A2A: inhibition of radioligand binding at 10 μM
T3 construct: expressed in transfected cells
Procedure, shortened: as §1

[4] = biological target: T2, human A1 AR; settings: at 10 μM; model compounds; values from Tosh et al. and Melman et al.; cited from earlier work

T3 sequence (P29274 whole entry): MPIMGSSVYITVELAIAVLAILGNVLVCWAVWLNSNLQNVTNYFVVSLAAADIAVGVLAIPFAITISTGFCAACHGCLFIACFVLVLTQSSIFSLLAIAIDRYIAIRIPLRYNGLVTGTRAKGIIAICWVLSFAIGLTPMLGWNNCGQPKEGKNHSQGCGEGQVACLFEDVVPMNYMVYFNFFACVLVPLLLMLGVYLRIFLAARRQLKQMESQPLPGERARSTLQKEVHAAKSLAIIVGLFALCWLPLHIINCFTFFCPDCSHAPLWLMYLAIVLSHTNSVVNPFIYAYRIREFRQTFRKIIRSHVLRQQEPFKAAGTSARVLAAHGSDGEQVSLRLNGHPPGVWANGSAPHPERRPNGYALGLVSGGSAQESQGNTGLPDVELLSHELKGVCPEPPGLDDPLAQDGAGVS

SMILES	inhibition at 10 µM [2]	Ki [3]	inhibition at 10 µM [3]	further results
CNC(=O)[C@@]12C[C@@H]1[C@@H](n1cnc3c(NCc4cccc(Cl)c4)nc(C#CCCCCc4cn(CCNC(C)=O)nn4)nc31)[C@H](O)[C@@H]2O [Compound 15, (1S,2R,3S,4R,5S)-6-(3-Chlorobenzylamino)-(2-(6-(1-(4-acetamidoethyl)-1H-1,2,3-triazol-4-yl)hex-1-ynyl)-9H-purin-9-yl)-2′,3′-dihydroxybicyclo[3.1.0]hexane-1′-carboxylic acid N-methylamide]	12%	2440 ± 320 nM		% Inhibition of cAMP accumulation at the hA3AR [1]: 93.6 ± 17.7%
CNC(=O)[C@@]12C[C@@H]1[C@@H](n1cnc3c(NCc4cccc(Cl)c4)nc(C#CCCCCc4cn(CCCCN)nn4)nc31)[C@H](O)[C@@H]2O [Compound 16, (1S,2R,3S,4R,5S)-6-(3-Chlorobenzylamino)-(2-(6-(1-(4-aminobutyl)-1H-1,2,3-triazol-4-yl)hex-1-ynyl)-9H-purin-9-yl)-2′,3′-dihydroxybicyclo[3.1.0]hexane-1′-carboxylic acid N-methylamide]	13%	1630 ± 350 nM		
CNC(=O)[C@@]12C[C@@H]1[C@@H](n1cnc3c(NCc4cccc(Cl)c4)nc(C#CCCCCc4cn(-c5ccc(C(=O)CBr)cc5)nn4)nc31)[C@H](O)[C@@H]2O [Compound 14, (1S,2R,3S,4R,5S)-6-(3-Chlorobenzylamino)-4-(2-(6-(4-(2-bromoacetyl)phenyl)-1H-1,2,3-triazol-4-yphex-1-ynyl)-9H-purin-9-yl)-2′,3′-dihydroxybicyclo[3.1.0]hexane-1′-carboxylic acid N-methylamide]	12%	5740 ± 730 nM		
CNC(=O)[C@@]12C[C@@H]1[C@@H](n1cnc3c(NCc4cccc(Cl)c4)nc(C#CCCCCc4cn(CCCCCCC(=O)NCCCCCCNC(=O)CCCC[C@@H]5SC[C@@H]6NC(=O)N[C@@H]65)nn4)nc31)[C@H](O)[C@@H]2O [Compound 21]				% inhibition, A1 [2]: (0 ± 0%); % inhibition, A2A [3]: (19 ± 5%)
C#CCCCCC#Cc1nc(NCc2cccc(Cl)c2)c2ncn(C3C(O)C(O)C4(C(=O)NC)CC34)c2n1 (stereo not drawn) [Compound 9, (1′S, 2′R, 3′S, 4′S, 5′S)-4′-[6-(3-Chlorobenzylamino)-2-(1,7-octadiynyl)-9H-purin-9-yl]-2′,3′-dihydroxybicyclo[3.1.0]hexane-1′-carboxylic acid N-methylamide]		7040 ± 1430 nM		% inhibition, A1 [4]: (31%
CNC(=O)[C@@]12C[C@@H]1[C@@H](n1cnc3c(NCc4cccc(Cl)c4)nc(C#CCCCCc4cn(-c5ccc(N)cc5)nn4)nc31)[C@H](O)[C@@H]2O [Compound 12, (1S,2R,3S,4R,5S)-4′-(6-(3-Chlorobenzylamino)-2-(6-(1-(4-amino-phenyl)-1H-1,2,3-triazol-4-yl)hex-1-ynyl)-9H-purin-9-yl)-2′,3′-dihydroxybicyclo[3.1.0]hexane-1′-carboxylic acid N-methylamide]	3%	5490 ± 1150 nM		
CNC(=O)[C@@]12C[C@@H]1[C@@H](n1cnc3c(NCc4cccc(Cl)c4)nc(C#CCCCCc4cn(CCCCCCNC(=O)CCCC[C@@H]5SC[C@@H]6NC(=O)N[C@@H]65)nn4)nc31)[C@H](O)[C@@H]2O [Compound 20, (1S,2R,3S,4R,5S)-6-(3-Chlorobenzylamino)-(2-(6-(1-(6-(5-(3aS,4S,6aR)-oxohexahydro-1H-thieno[3,4-d]imidazol-4-yl)pentanamido)hexyl-1H-1,2,3-triazol-4-yl)hex-1-ynyl)-9H-purin-9-yl)-2′,3′-dihydroxybicyclo[3.1.0]hexane-1′-carboxylic acid N-methylamide]	0%		27%	
CNC(=O)[C@@]12C[C@@H]1[C@@H](n1cnc3c(NCc4cccc(Cl)c4)nc(C#CCCCCc4cn(-c5ccc(N=C=S)cc5)nn4)nc31)[C@H](O)[C@@H]2O [Compound 26, (1S,2R,3S,4R,5S)-6-(3-Chlorobenzylamino)-(2-(6-(1-(4-isothiocyante-phenyl)-1H-1,2,3-triazol-4-yl)hex-1-ynyl)-9H-purin-9-yl)-2′,3′-dihydroxybicyclo[3.1.0]hexane-1′-carboxylic acid N-methylamide]	2%		28%	
CNC(=O)[C@@]12C[C@@H]1[C@@H](n1cnc3c(NCc4cccc(Cl)c4)nc(C#CCCCCc4cn(CCCCCCNC(=O)c5ccc(-c6c7ccc(=N)c(S(=O)(=O)O)c-7oc7c(S(=O)(=O)O)c(N)ccc67)c(C(=O)O)c5)nn4)nc31)[C@H](O)[C@@H]2O [Compound 23]				% inhibition, A1 [2]: (0 ± 0%); % inhibition, A2A [3]: (23 ± 5%)
CNC(=O)[C@@]12C[C@@H]1[C@@H](n1cnc3c(NCc4cccc(Cl)c4)nc(C#CCCCCc4cn(CCCCNC(C)=O)nn4)nc31)[C@H](O)[C@@H]2O [Compound 17, (1S,2R,3S,4R,5S)-6-(3-Chlorobenzylamino)-(2-(6-(1-(4-acetamidobutyl)-1H-1,2,3-triazol-4-yl)hex-1-ynyl)-9H-purin-9-yl)-2′,3′-dihydroxybicyclo[3.1.0]hexane-1′-carboxylic acid N-methylamide]	17%	7240 ± 510 nM		
CNC(=O)[C@@]12C[C@@H]1[C@@H](n1cnc3c(NCc4cccc(Cl)c4)nc(-c4nnn(-c5ccc(N=C=S)cc5)c4CCCCc4cn(-c5ccc(N=C=S)cc5)nn4)nc31)[C@H](O)[C@@H]2O [Compound 25, (1S,2R,3S,4R,5S)-6-(3-Chlorobenzylamino)-(2-(1,6-bis(4-isothiocyante-phenyl)-1H-bis(1,2,3-triazol-4-yl)hex-1-ynyl)-9H-purin-9-yl)-2′,3′-dihydroxybicyclo[3.1.0]hexane-1′-carboxylic acid N-methylamide]	4%		40%	
CNC(=O)[C@@]12C[C@@H]1[C@@H](n1cnc3c(NCc4cccc(Cl)c4)nc(C#CCCCCc4cn(-c5ccc(C(=O)O)cc5)nn4)nc31)[C@H](O)[C@@H]2O [Compound 13, (1S,2R,3S,4R,5S)-4′-(6-(3-Chlorobenzylamino)-2-(6-(1-(4-carboxyl-phenyl)-1H-1,2,3-triazol-4-yl)hex-1-ynyl)-9H-purin-9-yl)-2′,3′-dihydroxybicyclo[3.1.0]hexane-1′-carboxylic acid N-methylamide]	0%		40%	
CNC(=O)[C@@]12C[C@@H]1[C@@H](n1cnc3c(NCc4cccc(Cl)c4)nc(C#CCCCCc4cn(Cc5ccc(-n6sccc6=O)cc5)nn4)nc31)[C@H](O)[C@@H]2O [Compound 19, (1S,2R,3S,4R,5S)-6-(3-Chlorobenzylamino)-(2-(1-(4-3-oxoisothiazol-2(3H)-yl)benzyl-1H-1,2,3-triazol-4-yphex-1-ynyl)-9H-purin-9-yl)-2′,3′-dihydroxybicyclo[3.1.0]hexane-β-carboxylic acid N-methylamide]	15%		49%	
CNC(=O)[C@@]12C[C@@H]1[C@@H](n1cnc3c(NCc4cccc(Cl)c4)nc(C#CCCCCc4cn(C56CC7CC(CC(C7)C5)C6)nn4)nc31)[C@H](O)[C@@H]2O [Compound 18, (1S,2R,3S,4R,5S)-6-(3-Chlorobenzylamino)-(2-(6-(1-(adamantyl)-1H-1,2,3-triazol-4-yl)hex-1-ynyl)-9H-purin-9-yl)-2′,3′-dihydroxybicyclo[3.1.0]hexane-1′-carboxylic acid N-methylamide]	22%	3280 ± 700 nM		
CNC(=O)[C@@]12C[C@@H]1[C@@H](n1cnc3c(NCc4cccc(Cl)c4)nc(C#CCCCCc4cn(-c5ccc(F)c([N+](=O)[O-])c5)nn4)nc31)[C@H](O)[C@@H]2O [Compound 11]	8%	6730 ± 280 nM		
